The source of these data is patent US10894782B2, “Modulators of P97 AAA ATPase activity” (University of Pittsburgh—Of the Commonwealth System of …, priority 2016, dated 2021).

The target of the first experiment is P97 (Homo sapiens (Human), UniProt P55072). Put plainly: P97 Biomolgreen ATPase assay, 200 μM ATP. It counts as biochemical. The following applies: P97 Biomolgreen, IC50 (μM).
Chain of P97 (P55072 whole entry): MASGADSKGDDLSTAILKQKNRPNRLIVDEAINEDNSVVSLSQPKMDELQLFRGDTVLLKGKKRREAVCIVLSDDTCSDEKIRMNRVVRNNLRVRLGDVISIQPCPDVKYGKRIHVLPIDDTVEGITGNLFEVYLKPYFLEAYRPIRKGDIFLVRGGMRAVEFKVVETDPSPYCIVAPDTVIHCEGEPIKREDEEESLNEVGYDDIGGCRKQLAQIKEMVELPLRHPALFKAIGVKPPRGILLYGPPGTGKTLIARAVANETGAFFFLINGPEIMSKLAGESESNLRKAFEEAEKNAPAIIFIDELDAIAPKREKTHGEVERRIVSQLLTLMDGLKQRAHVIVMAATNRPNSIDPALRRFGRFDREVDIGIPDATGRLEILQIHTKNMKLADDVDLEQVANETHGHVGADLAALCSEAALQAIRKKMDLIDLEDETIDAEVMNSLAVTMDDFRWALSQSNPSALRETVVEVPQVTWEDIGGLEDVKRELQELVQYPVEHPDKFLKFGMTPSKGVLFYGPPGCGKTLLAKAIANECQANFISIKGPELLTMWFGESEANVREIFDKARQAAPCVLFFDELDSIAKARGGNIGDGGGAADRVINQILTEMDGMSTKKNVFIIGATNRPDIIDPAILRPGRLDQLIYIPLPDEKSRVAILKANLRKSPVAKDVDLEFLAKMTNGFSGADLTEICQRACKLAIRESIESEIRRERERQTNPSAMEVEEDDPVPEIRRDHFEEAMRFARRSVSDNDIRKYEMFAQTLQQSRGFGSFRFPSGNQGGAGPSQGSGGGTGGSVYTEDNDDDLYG
With `[2H]C1([2H])C([2H])([2H])C([2H])([2H])C([2H])(Sc2nnc(COc3ccc(C#CCNC(=O)OC(C)(C)C)c(C)c3)n2-c2cccnc2)C1([2H])[2H]` [Compound 46], half-maximal inhibition (IC50) required 0.19 µM.

The compound `[2H]C1([2H])C([2H])([2H])C([2H])([2H])C([2H])(Sc2nnc(COc3ccc(C#CC(O)c4ccccc4)c(C)c3)n2-c2cccnc2)C1([2H])[2H]` (stereo not drawn) [Compound 52] came in with an IC50 of 0.55 µM.

For the compound `[2H]C1([2H])C([2H])([2H])C([2H])([2H])C([2H])(Sc2nnc(COc3ccc(C#CCNCC4(N5CCN(C(C)C)CC5)CCC4)c(C)c3)n2-c2cccnc2)C1([2H])[2H]` [Compound 67], the IC50 was determined as 0.2 µM.

As to `[2H]C1([2H])C([2H])([2H])C([2H])([2H])C([2H])(Sc2nnc(COc3ccc(C#CCNCCN4CCN(C)CC4)c(C)c3)n2-c2cccnc2)C1([2H])[2H]` [Compound 68], the IC50 was determined as 0.17 µM.

As for `[2H]C1([2H])C([2H])([2H])C([2H])([2H])C([2H])(Sc2nnc(COc3ccc(C#CCO)c(C)c3)n2-c2cccnc2)C1([2H])[2H]` [Compound 93], the IC50 amounted to 0.048 µM.

`[2H]C1([2H])C([2H])([2H])C([2H])([2H])C([2H])(Sc2nnc(COc3ccc(C#CCOC(=O)NCCN4CCN(C(C)C)CC4)c(C)c3)n2-c2cccnc2)C1([2H])[2H]` [Compound 100] had an IC50 of 0.025 µM.

In turn, `[2H]C1([2H])C([2H])([2H])C([2H])([2H])C([2H])(Sc2nnc(COc3ccc(C#CCO)c(F)c3)n2-c2cccnc2)C1([2H])[2H]` [Compound 105] registered an IC50 of 0.03 µM.

Regarding `[2H]C1([2H])C([2H])([2H])C([2H])([2H])C([2H])(Sc2nnc(COc3ccc(C#CCOC(=O)NC)c(F)c3)n2-c2cccnc2)C1([2H])[2H]` [Compound 106], the IC50 turned out to be 0.02 µM.

For the compound `[2H]C([2H])(O)C#Cc1ccc(OCc2nnc(SC3([2H])C([2H])([2H])C([2H])([2H])C([2H])([2H])C3([2H])[2H])n2-c2cccnc2)cc1F` [Compound 109], the midpoint of inhibition, the IC50, lay at 0.03 µM.

The experiment is the same for the next values; noted with them: read-out: P97 Biomolgreen, IC50.
On to `Cc1cc(OCc2nnc(SC3CCCC3)n2-c2cccnc2)ccc1C#CCN1CCS(=O)(=O)CC1` [Compound 44], for which the IC50 was 0.18 µM.

For `Cc1cc(OCc2nnc(SC3C=CCCC3)n2-c2cccnc2)ccc1C#CC(C)(C)NC(=O)OC(C)(C)C` (stereo not drawn) [Compound 45], the IC50 worked out at 0.64 µM.

Consider `Cc1cc(OCc2nnc(SC3C=CCCC3)n2-c2cccnc2)ccc1C#CCN1C(=O)c2ccccc2C1=O` (stereo not drawn) [Compound 47], for which the IC50 worked out at 0.29 µM.

As for `C#Cc1ccc(OCc2nnc(SC3CC3)n2-c2cccnc2)cc1C` [Compound 48], the IC50 was found to be 0.67 µM.

As to `Cc1cc(OCc2nnc(SC3CCCC3)n2-c2cccnc2)ccc1C#CCN1C(=O)c2ccccc2C1=O` [Compound 50], the IC50 amounted to 0.28 µM.

Regarding `C#Cc1ccc(OCc2nnc(CC3CCCC3)n2-c2cccnc2)cc1C` [Compound 51], the IC50 was determined as 0.44 µM.

`Cc1cc(OCc2nnc(SC3C=CCCC3)n2-c2cccnc2)ccc1C#CC1(NC(=O)OC(C)(C)C)CCCCC1` (stereo not drawn) [Compound 53]: the IC50 came to 1.1 µM.

As to `Cc1cc(OCc2nnc(SC3CC3)n2-c2cccnc2)ccc1C#CCNC(=O)OC(C)(C)C` [Compound 54], the IC50 was determined as 2 µM.

On to `N#Cc1ccc(C#CCOCc2nnc(SC3CCCC3)n2-c2cccnc2)cc1` [Compound 56], for which the IC50 was above 6.7 µM.

In the case of `Cc1cc(OCc2nnc(SC3CCCC3)n2-c2cccnc2)ccc1C#CCO` [Compound 58], the IC50 turned out to be 0.093 µM.

As for `Cc1cc(OCc2nnc(SC3C=CCCC3)n2-c2cccnc2)ccc1C#CCOC(=O)NCCN1CCN(C)CC1` (stereo not drawn) [Compound 59], the 50% inhibitory concentration (IC50) was determined as 0.025 µM.

As to `Cc1cc(OCc2nnc(SC3C=CCCC3)n2-c2cccnc2)ccc1C#CCOC(=O)NCCN1CCN(C(C)C)CC1` (stereo not drawn) [Compound 60], the IC50 worked out at 0.019 µM.

As to `Cc1cc(OCc2nnc(SC3C=CCCC3)n2-c2cccnc2)ccc1C#CCOC(=O)NCCC(=O)N1CCN(C)CC1` (stereo not drawn) [Compound 61], the IC50 was 0.029 µM.

Consider `Cc1cc(OCc2nnc(SC3C=CCCC3)n2-c2cccnc2)ccc1C#CC(OC(=O)NCCN1CCN(C(C)C)CC1)C(F)(F)F` (stereo not drawn) [Compound 62], for which the IC50 is 0.11 µM.

Turning to `Cc1cc(OCc2nnc(SC3C=CCCC3)n2-c2cccnc2)ccc1C#CCNS(=O)(=O)N1CCOCC1` (stereo not drawn) [Compound 63], the half-inhibitory concentration (IC50) was 0.048 µM.

On to `Cc1cc(OCc2nnc(SC3C=CCCC3)n2-c2cccnc2)ccc1C#CCNS(=O)(=O)N1CCCC1` (stereo not drawn) [Compound 64], for which the IC50 amounted to 0.06 µM.

For `Cc1cc(OCc2nnc(SC3C=CCCC3)n2-c2cccnc2)ccc1C#CCNS(=O)(=O)N1CCN(C)CC1` (stereo not drawn) [Compound 65], the IC50 stood at 0.047 µM.

With `Cc1cc(OCc2nnc(CC3CCCC3)n2-c2cccnc2)ccc1C#CCOC(=O)NCCN1CCN(C(C)C)CC1` [Compound 66], the IC50 was found to be 0.12 µM.

`Cc1cc(OCc2nnc(CC3CCCC3)n2-c2cccnc2)ccc1C#CCOC(=O)NCCN1CCN(C)CC1` [Compound 69]: the IC50 came to 0.066 µM.

In the case of `Cc1cc(OCc2nnc(CC3CCCC3)n2-c2cccnc2)ccc1C#CCOC(=O)NCCC(=O)N1CCN(C)CC1` [Compound 70], the IC50 stood at 0.098 µM.

As for `Cc1cc(OCc2nnc(SC3C=CCCC3)n2-c2cccnc2)ccc1C#CC1(O)CN(C(=O)OC(C)(C)C)C1` (stereo not drawn) [Compound 72], the IC50 is 0.18 µM.

With `Cc1cc(OCc2nnc(SC3C=CCCC3)n2-c2cccnc2)ccc1C#CCNC(=O)NCCN1CCN(C(C)C)CC1` (stereo not drawn) [Compound 73], the IC50 turned out to be 0.052 µM.

`Cc1cc(OCc2nnc(SC3CCCC=C3F)n2-c2cccnc2)ccc1C#CCO` (stereo not drawn) [Compound 74]: the IC50 was determined as 0.51 µM.

In the case of `Cc1cc(OCc2nnc(SC3C=CCCC3)n2-c2cccnc2)ccc1C#CCOC(=O)N1CCN(C)CC1` (stereo not drawn) [Compound 76], the IC50 turned out to be 0.03 µM.

Turning to `CN1CCN(CCNC(=O)OCC#Cc2ccc(OCc3nnc(SC4C=CCCC4)n3-c3cccnc3)cc2F)CC1` (stereo not drawn) [Compound 77], the IC50 amounted to 0.02 µM.

Regarding `Cc1cc(OCc2nnc(SC3C=CCCC3)n2-c2cccnc2)ccc1C#CCNS(=O)(=O)C1CCN(C(=O)OC(C)(C)C)CC1` (stereo not drawn) [Compound 78], the IC50 is 0.09 µM.

`Cc1cc(OCc2nnc(SC3C=CCCC3)n2-c2cccnc2)ccc1C#CCO` (stereo not drawn) [Compound 79]: the IC50 amounted to 0.037 µM.

With `Cc1cc(OCc2nnc(SC3CCCC=C3F)n2-c2cccnc2)ccc1C#CCOC(=O)NCCN1CCN(C)CC1` (stereo not drawn) [Compound 80], the IC50 was determined as 0.23 µM.

Regarding `Cc1cc(OCc2nnc(SC3CCCC=C3F)n2-c2cccnc2)ccc1C#CCOC(=O)NCCN1CCN(C(C)C)CC1` (stereo not drawn) [Compound 81], the IC50 amounted to 0.16 µM.

Regarding `CN1CCN(CCNC(=O)OCC#Cc2ccc(OCc3nnc(SC4C=CCCC4)n3-c3cccnc3)cc2C(F)(F)F)CC1` (stereo not drawn) [Compound 82], the IC50 worked out at 0.043 µM.

Turning to `CC(=O)NCC#Cc1ccc(OCc2nnc(SC3C=CCCC3)n2-c2cccnc2)cc1C` (stereo not drawn) [Compound 83], the IC50 is 0.046 µM.

As to `Cc1cc(OCc2nnc(SC3C=CCCC3)n2-c2cncc(Cl)c2)ccc1C#CCO` (stereo not drawn) [Compound 84], the IC50 is 2.11 µM.

As for `Cc1cc(OCc2nnc(SC3C=CCCC3)n2-c2cncc(Cl)c2)ccc1C#CCOC(=O)NCCN1CCN(C)CC1` (stereo not drawn) [Compound 85], the IC50 was 0.934 µM.

Take `C=C(C)C(=O)NCC#Cc1ccc(OCc2nnc(SC3C=CCCC3)n2-c2cccnc2)cc1C` (stereo not drawn) [Compound 86]: the IC50 turned out to be 0.06 µM.

`C/C=C/C(=O)NCC#Cc1ccc(OCc2nnc(SC3C=CCCC3)n2-c2cccnc2)cc1C` (stereo not drawn) [Compound 87]: the IC50 came to 0.058 µM.

With `Cc1cc(OCc2nnc(SC3C=CCCC3)n2-c2cccnc2)ccc1C#CCNCCN(C)C` (stereo not drawn) [Compound 88], the IC50 is 0.06 µM.

Turning to `Cc1cc(OCc2nnc(SC3CCCC3)n2-c2cccnc2)ccc1C#CCO` [Compound 89], the IC50 was 0.028 µM.

Regarding `Cc1cc(OCc2nnc(SC3C=CCCC3)n2-c2cccnc2)ccc1C#CCOC(=O)NCCN1CCN(C(C)C)CC1` (stereo not drawn) [Compound 90], the IC50 was found to be 0.084 µM.

`C=CC(=O)NCC#Cc1ccc(OCc2nnc(SC3C=CCCC3)n2-c2cccnc2)cc1C` (stereo not drawn) [Compound 92]: the IC50 was determined as 0.026 µM.

With `CCC(=O)NCC#Cc1ccc(OCc2nnc(SC3C=CCCC3)n2-c2cccnc2)cc1C` (stereo not drawn) [Compound 94], the IC50 was 0.03 µM.

For `Cc1cc(OCc2nnc(SC3C=CCCC3)n2-c2cccnc2)ccc1C#CCNC(=O)CCl` (stereo not drawn) [Compound 95], the IC50 is 0.03 µM.

As for `OCC#Cc1ccc(OCc2nnc(SC3C=CCCC3)n2-c2cccnc2)cc1F` (stereo not drawn) [Compound 97], the IC50 was found to be 0.026 µM.

On to `Cc1cc(OCc2nnc(S(=O)(=O)C3C=CCCC3)n2-c2cccnc2)ccc1C#CCO` (stereo not drawn) [Compound 98], for which the IC50 amounted to 4.82 µM.

For the compound `Cc1cc(OCc2nnc(OC3CCCC3)n2-c2cccnc2)ccc1C#CCO` [Compound 99], the IC50 amounted to 0.183 µM.

For the compound `Cc1cc(OCc2nnc(SC3C=CCCC3)n2-c2cccnc2)ccc1C#CCOC(=O)N1CCN(C(C)C)CC1` (stereo not drawn) [Compound 101], the IC50 came to 0.03 µM.

Turning to `CC(=O)N1CCN(C(=O)OCC#Cc2ccc(OCc3nnc(SC4C=CCCC4)n3-c3cccnc3)cc2C)CC1` (stereo not drawn) [Compound 102], the IC50 came to 0.03 µM.

For the compound `Cc1cc(OCc2nnc(SC3C=CCCC3)n2-c2cccnc2)ccc1C#CCNC(=O)C1CC1` (stereo not drawn) [Compound 103], the IC50 was found to be 0.03 µM.

Take `Cc1cc(C(=O)NCC#Cc2ccc(OCc3nnc(SC4C=CCCC4)n3-c3cccnc3)cc2C)no1` (stereo not drawn) [Compound 104]: the IC50 was determined as 0.05 µM.

Regarding `CN1CCN(CCNC(=O)OCC#Cc2ccc(OCc3nnc(SC4C=CCCC4)n3-c3cccnc3)cc2F)CC1` (stereo not drawn) [Compound 107], the IC50 was found to be 0.013 µM.

`Cc1cc(OCc2nnc(SC3CCCC3)n2-c2cccnc2)ccc1C#CCOC(=O)NCCNC(=O)CC1[C@H]2CC3C[C@H](C2)C[C@H]1C3` (stereo partly drawn) [Compound 110]: the IC50 turned out to be 0.06 µM.

For `Cc1cc(OCc2nnc(SC3CCCC3)n2-c2cccnc2)ccc1C#CCOC(=O)NCCOCCNC(=O)CC1[C@H]2C[C@@H]3C[C@@H](C[C@H]1C3)C2` (stereo partly drawn) [Compound 111], the IC50 came to 0.03 µM.

In the case of `CCC(=O)NCC#Cc1ccc(OCc2nnc(SC3C=CCCC3)n2-c2cccnc2)cc1C` (stereo not drawn) [Compound 112], the IC50 stood at 0.025 µM.

Turning to `OCC#Cc1ccc(OCc2nnc(SC3C=CCCC3)n2-c2cccnc2)c(F)c1F` (stereo not drawn) [Compound 113], the IC50 was 0.04 µM.

As to `OCC#Cc1cc(F)c(OCc2nnc(SC3C=CCCC3)n2-c2cccnc2)cc1F` (stereo not drawn) [Compound 114], the IC50 was determined as 0.02 µM.
